Source: patent publication US9623226B2, “Device for efficient delivery of compounds to or through the skin or biological barriers, using light-absorbing thin films” (Universidade de Coimbra, priority 2011, dated 2017)

Legend:
[1] = In vitro transdermal delivery through minipig skin samples, passive versus active (photoacoustic device); type: in vitro ADME; conditions: extraction with dichloromethane and fluorescence, confirming fluorescence microscopy; high-impulse broadband pressure wave versus passive
Protocol: Skin sections were cut from the back of the minipigs after they had been sacrificed. These skin sections were frozen and kept at −18° C. until use in in vitro tests. Before each in vitro test, the required amount of minipig skin was slowly brought to room temperature. All the tests were carried out at room temperature.
(§1) The skin samples collected after the experiments were analyzed by microscopy to evaluate the penetration depth of the desired compounds, or followed an extraction procedure to evaluate their amounts under the skin. The evaluation of the penetration depth by fluorescence microscopy or by confocal microscopy requires tissue fixation. The first step in the fixation was immersion in paraformaldehyde (4% in aqueous solution) for at least 24 h. Next, the samples were transferred to a 25% sucrose solution for at least 48 h. […] The skin slices were collected in microscope slides and kept refrigerated until they were analyzed by fluorescence microscopy and confocal microscopy. […]
In order to evaluate the quantities of the F2TPPMet delivered under the skin a specific method was developed. […] Fluorescence calibration curves of the pharmacological excipient delivered in the skin were performed in the extractor solvent to validate the methodology used. Finally, the mass delivered onto the skin is determined for each essay substituting its fluorescence in the calibration curve. […]

[2] = tested on: skin of a minipig; experiment: In vivo transdermal delivery on the back of minipigs, passive and active (photoacoustic device); conditions: device of Example 1, 12 laser shots at 355 nm, 10 mJ per pulse
Source text: In vivo and in vitro tests employed four minipigs obtained from IMIDHA (Instituto Madrileño de Investigación y Desarrollo Rural, Agrario y Alimentario)—Aranjuez (Madrid). They were all females, aged 6-8 months, white with brown spots, average weight 56.8 kg (66.2, 57.1, 43.5, 60.6 kg). They were received at Estação Zootécnica Nacional, Vale de Santarém, where they were accommodated in individual boxes with 1.5 m^2, feed with a standard diet for pigs and water ad libidum, for an acclimation period of three weeks. The study was performed in accordance to the Portuguese ethical guidelines on a license granted by Dircção de Serviços de Saúde o Protecção Animal, ref. 0420/000/000/2007. Access to food was suspended 24 h hours before treatment. The backs of the animals were shaved 24 h prior to the in vivo application of the dermatological formulations. […]
as §1, with “fixation.” for “fixation. The first step in the fixation was immersion in paraformaldehyde (4% in aqueous solution) for at least 24 h. Next, the samples were transferred to a 25% sucrose solution for at least 48 h.”

state of the stratum corneum after active transdermal delivery ([2]; 20 minutes incubation): stratum corneum remained intact
distribution in the skin by fluorescence microscopy after active transdermal delivery ([2]; ca 1 cm^2, 20 minutes incubation): distributed over all the epidermis
Substance: 5,10,15,20-tetrakis(2,6-fluoro-3-N-methylsulfamoylphenyl)porphyrin [F2TPPMet]
quantity of F2TPPMet delivered to the skin, active versus passive transdermal delivery [1]: increase in the quantity of F2TPPMet delivered to the skin
